The test system of data set [1] is SW480 human colon carcinoma cancer cells. The data set can be described thus: SW480 colon carcinoma xenograft in SCID mice. Format: in vivo, CB17 SCID/SCID female mice. The note with it: i.v. 10 mg/kg once a day for five days. The method, then:
The resultant mice are a model for a human having colon carcinoma cancer.
(§1) The SW480 human colon carcinoma cancer cells were maintained in RPMI supplemented with 10% inactivated fetal bovine serum and 1% penicillin-streptomycin-L-Glutamine, under 5% CO2 at 37° C., and passaged twice a week. The cells were grown at a confluency lower than 70% and then collected with Trypsin (Bio-Whittaker, Md., USA). The cells were then centrifuged and washed twice using phosphate buffered saline solution (PBS) and resuspended in PBS at 1×10^6 cells per 100 μl. Viability was examined by staining with Trypan Blue and only flasks with cell viability of greater than 95% were used for in vivo studies.
SW480 cells were transplanted subcutaneously into the flank of female CB 17 SCID/SCID mice. Each mouse was inoculated with a suspension of 1×10^6 tumor cells per 100 μL on day zero. The following five treatment groups of ten mice each were used: (a) a negative control group treated with intravenous (i.v.) injection of vehicle, (b) a group treated with i.v. injection of a Compound 50, (c) a group treated with i.v. injection of a Compound 50a, (d) a group treated with i.v. injection of Compound 50b, (e) a group treated with i.v. injection of Compound 74a.
Treatment started on day twelve after SW480 cells transplantation and Compounds 50, 50a, 50b and 74a were administered i.v. once daily for five consecutive days at a dose of 10, 10, 10 and 50 mg/kg, respectively. Compound 50, 50a and 50b were prepared as a working solution of 1.5 mg/mL in a vehicle solution of 20% Cremaphor EL (Sigma, St. Louis, Miss., USA), and 10% Ethanol. Compound 74a was prepared as a working solution of 5 mg/mL in a vehicle solution of 5% Dextrose (Abbot Laboratories, QC, Canada). The negative control groups were treated with vehicle solution of 20% Cremaphor EL and 10% Ethanol alone.
(§2) The mice were weighed and the tumors measured on day 12 and every 2 to 3 days after treatment commenced. Observations continued for 23 days after initial tumor implantation. The changes in body weight and in the calculated tumor volume were plotted (FIGS. 9 and 10). Statistical analysis was performed using GraphPad Prism (GraphPad Software Inc., San Diego, Calif.). Two-way ANOVA was used to determine how the treatment affected tumor growth over time. Following the two-way ANOVA, post-tests were performed using the Benferroni method to determine the statistical difference between the mean tumor-size of the two groups being compared on every day that the tumors were measured.

The format of data set [2] is in vivo, CB17 SCID/SCID female mice. The protocol:
(§3) C33A cells were transplanted subcutaneously into the flank of female CB17 SCID/SCID mice. Each mouse was inoculated with a suspension of 2×10^6 tumor cells per 100 μL on day zero. The following six treatment groups of ten mice each were used: (a) a negative control group treated with intravenous (i.v.) injection of vehicle, (b) a negative control group treated with intraperitoneal (i.p.) injection of vehicle, (c) a positive control group treated with i.p. injection of Cisplatin, (d) a group treated with i.v. injection of a Compound 50, (e) a group treated with i.p. injection of Compound 50, and (f) a group treated with subcutaneous (s.c.) injection of Compound 50.
(§4) Treatment started on day thirteen after C33A cells transplantation for Compound 50 treated groups and on day fourteen for Cisplatin treated group. Compound 50 was administered i.v., i.p., and s.c. once daily for five consecutive days at a dose of 10, 15 and 30 mg/kg, respectively. Compound 50 was prepared as a working solution of 1.5 mg/mL in a vehicle solution of 20% Cremaphor EL (Sigma, St. Louis, Mo., USA), 10% Ethanol and 5% Dextrose (Abbot Laboratories, QC, Canada). The negative control groups were treated with vehicle alone. The positive control group was treated once every 3 days for fifteen days at a dose of 3.5 mg/kg. Cisplatin was formulated in PBS on each day of the injection and was administered i.p.
as §2, with “13” for “12”, “36” for “23”, “4” for “9”, “5).” for “10).”, “measured. […]” for “measured.”

Data set [3] concerns Candida albicans strain ATCC 10231. The data set can be described thus: Fungus growth inhibition (OD600). Format: cell-based. The note with it: dilution series, YEP glucose, 30° C.; dose-dependent. The method, then:
Fungus cells were first cultured overnight in 10 mL of YEP glucose-containing medium at 30° C. The following day, 5 μL of the overnight culture (5–6×10^3 cells) was added to 100 μL of YEP glucose-containing medium in a 96-well microtitre plate. To these cultures a dilution series of Compound 50 was added. Compound 50 was prepared as a stock solution in 100% dimethyl sulfoxide (DMSO) at a concentration of 10 mM. Serial dilutions were prepared in distilled water. The final DMSO concentration in each well was 0.5%. Fungus cells were grown at 30° C. and cell growth was monitored by reading the OD600 (optical density at 600 nm) with a Tecan Ultra plate reader (TECAN U.S. Inc. Research Triangle Park, N.C., USA). […] Accordingly, Compound 50, an illustrative Diterpenoid Compound, is useful for inhibiting the growth of a fungus or treating a fungal infection.

Data set [4] has as its system C33A human cervical cancer cells. The data set can be described thus: C33A cervical tumor xenograft in SCID mice. Format: in vivo, CB17 SCID/SCID female mice. The note with it: for Tumor growth compared to vehicle: two-way ANOVA. The method, then:
The resultant mice are a model for a human having cervical cancer.
as §1, with “C33A” for “SW480”, “cervical” for “colon carcinoma”, “2×10^6” for “1×10^6”
as §3, §4
as §2, with “13” for “12”, “36” for “23”, “4” for “9”, “5).” for “10).”, “measured. Four animals in the negative control injected i.v. with vehicle and two animals in the group treated i.v. with Compound 50 died during the observation period. Therefore, the data collected from these animals were excluded from all calculations and the total number of animals in the groups changed to six for the negative control injected i.v. with vehicle and eight for the group treated i.v. with Compound 50.” for “measured.”

Consider one compound from patent US7230139B2, “Diterpenoid compounds, compositions thereof and their use as anti-cancer or anti-fungal agents” (priority 2004, dated 2007).

`COc1ccc2c(c1)C1(C)C=CC(=O)C(C)(C)C1=C(O)C2=O` (racemic) [Compound 50]: the “Tumor growth compared to vehicle” value in data set [1], in data set [4] (i.p. 15 mg/kg once a day for five days), in data set [4] (i.v. 10 mg/kg once a day for five days) and in data set [4] (s.c. 30 mg/kg once a day for five days) was “significant reduction (p<0.001)” throughout. The “Change in body weight” value in data set [2] (Compound 50 i.v., i.p. or s.c. 10, 15, 30 mg/kg once daily for five days) is reported as “non-significant change in body weight”. In addition, the “Animals died during the observation period” value in data set [2] (i.v. group of ten mice, four died in the i.v. vehicle group) is “two animals”. Further, the “Growth of Candida albicans” value in data set [3] is “significantly inhibited growth”. The “Mean tumor-size compared to vehicle” value in data set [4] (i.p., day 34 and day 36) is “significantly (p<0.05) smaller mean tumor-size”; in data set [4] (i.v. 10 mg/kg, day 36), “significantly (p<0.05) smaller mean tumor-size”; in data set [4] (s.c., day 34 (p<0.01) and day 36 (p<0.001)), “significantly smaller mean tumor-size”.
